Measurements reported in ChEMBL document CHEMBL3227967, “Quantitative structure-activity relationships in 1-aryl-2-(alkylamino)ethanol antimalarials” (J Med Chem, 1979).

These compounds were tested on Plasmodium berghei (assay: Antimalarial activity against Plasmodium berghei).
Type: functional

| SMILES | log(1/C) |
| --- | --- |
| CCCCN(CCCC)CC(O)c1cc(C(=O)c2cccc(Cl)c2Cl)nc2c(C(F)(F)F)cc(Cl)cc12 (stereo not drawn) | 4.52 |
| CCCCN(CCCC)CC(O)c1cc(-c2ccc(Cl)cc2)nc2c(C(F)(F)F)cc(OC)cc12 (stereo not drawn) | 3.93 |
| CCC(CC)NCC(O)c1cc2ccc(C(F)(F)F)cc2c2cc(C(F)(F)F)ccc12 (stereo not drawn) | 4.2 |
| OC(CC1CCCCN1)c1cc2ccc(Br)cc2c2cc(Br)ccc12 (stereo not drawn) | 3.31 |
| OC(CC1CCCCN1)c1cc2cc(Cl)ccc2c2cc(C(F)(F)F)ccc12 (stereo not drawn) | 4.07 |
| OC(CC1CCCCN1)c1cc2ccc(C(F)(F)F)cc2c2ccccc12 (stereo not drawn) | 3.43 |
| CCCCCCN(CCCCCC)CC(O)c1cc(-c2ccc(Cl)c(Cl)c2)nc2ccc(OC)cc12 (stereo not drawn) | 3.35 |
| CCCCN(CCCC)CC(O)c1cc2ccc(Cl)cc2c2cc(OC)ccc12 (stereo not drawn) | 2.49 |
| OC(C[N+]12CCC(CC1)CC2)c1cc(-c2ccc(Cl)cc2)nc(-c2ccc(Cl)cc2)c1 (stereo not drawn) | 3.21 |
| CCCCCCCN(CCCCCCC)CC(O)c1cc2ccc(C(F)(F)F)cc2c2cc(Cl)ccc12 (stereo not drawn) | 2.9 |
| CCCCN(CCCC)CC(O)c1c(Br)c2ccccc2c2cc(Br)ccc12 (stereo not drawn) | 3.23 |
| CCCCN(CCCC)CC(O)c1cc2cc(Cl)ccc2c2cc(Cl)ccc12 (stereo not drawn) | 3.81 |
| CCCCNCC(O)c1cc2ccc(C(F)(F)F)cc2c2ccsc12 (stereo not drawn) | 2.51 |
| CCCCN(CCCC)CC(O)c1cc(C(=O)c2ccc(C(F)(F)F)cc2)nc2c(Cl)cc(Cl)cc12 (stereo not drawn) | 4.86 |
| CCCCN(CCCC)CC(O)c1cc(C(C)(C)C)nc2c1ccc1ccccc12 (stereo not drawn) | 2.65 |
| CCCCN(CCCC)CC(O)c1cc2ccc(C(F)(F)F)cc2c2sccc12 (stereo not drawn) | 2.98 |
| Cc1cc(C)c2cc(C(O)CC3CCCCN3)c3ccc(C(F)(F)F)cc3c2c1 (stereo not drawn) | 3.25 |
| CCCCN(CCCC)CC(O)c1cc(-c2ccc(Cl)cc2)nc2ccc(Cl)cc12 (stereo not drawn) | 3.8 |
| CCCCN(CCCC)CC(O)c1cc2ccccc2c2cccc(Cl)c12 (stereo not drawn) | 2.32 |
| OC(CN1CCN(c2ccccc2)CC1)c1cc(-c2ccccc2)nc2c(Cl)cc(Cl)cc12 (stereo not drawn) | 2.66 |
| Cc1cc(C)c2nc(C(F)(F)F)cc(C(O)CC3CCCCN3)c2c1 (stereo not drawn) | 2.93 |
| OC(CC1CCCCN1)c1cc(C(F)(F)F)nc2c(C(F)(F)F)cccc12 (stereo not drawn) | 4.41 |
| CCCCN(CCCC)CC(O)c1cc(-c2ccc(Cl)cc2)nc(-c2ccc(OC)cc2)c1 (stereo not drawn) | 2.84 |
| CCCCN(CCCC)CC(O)c1cc2c(Cl)cc(Cl)cc2c2cc(C)sc12 (stereo not drawn) | 3.3 |
| CCCCN(CCCC)CC(O)c1cc(-c2ccc(OC)cc2)nc2cc(Cl)c(Cl)cc12 (stereo not drawn) | 3.63 |

| SMILES | log(1/C) |
| --- | --- |
| CCCCN(CCCC)CC(O)c1cc2ccc(Cl)cc2c2c(Cl)cc(Cl)cc12 (stereo not drawn) | 4.21 |
| CCCCN(CCCC)CC(O)c1cc(-c2ccc(Cl)cc2)nc2cc(F)ccc12 (stereo not drawn) | 3.62 |
| OC(CC1CCCCN1)c1cc(Nc2ccc(Cl)cc2)nc2ccc(Cl)cc12 (stereo not drawn) | 2.72 |
| CCCCN1CCCCC1CC(O)c1cc2ccccc2c2cc(Br)ccc12 (stereo not drawn) | 3.22 |
| CCCCN(CCCC)CC(O)c1cc(-c2ccc(C(F)(F)F)cc2)nc(-c2ccc(Cl)c(Cl)c2)c1 (stereo not drawn) | 3.16 |
| CCCCN(CCCC)CC(O)c1cc(-c2ccc(Cl)cc2)cc2cc(Cl)ccc12 (stereo not drawn) | 4.24 |
| CCCCN(CCCC)CC(O)c1cc2cc(S(C)(=O)=O)ccc2c2cc(Cl)c(Cl)cc12 (stereo not drawn) | 3.74 |
| OC(CC1CCCCN1)c1cc(-c2ccc(C(F)(F)F)cc2)nc(-c2ccc(C(F)(F)F)cc2)c1 (stereo not drawn) | 4.19 |
| CCCCN(CCCC)CC(O)c1cc2cccc(Br)c2c2cc(C(F)(F)F)ccc12 (stereo not drawn) | 3.52 |
| CC(C)(C)NCCC(O)c1cc2ccc(C(F)(F)F)cc2c2cc(C(F)(F)F)ccc12 (stereo not drawn) | 4.73 |
| CCCCN(CCCC)CC(O)c1cc(-c2cccc(C(F)(F)F)c2)nc2c(Cl)cc(Cl)cc12 (stereo not drawn) | 3.93 |
| CCCCN(CCCC)CC(O)c1cc(-c2ccc(Cl)cc2)nc2c(Cl)cc(Cl)cc12 (stereo not drawn) | 4.03 |
| CCCCN(CCCC)CC(O)c1cc2sccc2c2cc(Cl)sc12 (stereo not drawn) | 3.36 |
| OC(CC1CCCCN1)c1cc(C(F)(F)F)nc2ccc(F)cc12 (stereo not drawn) | 2.33 |
| CCCCCCCN(CCCCCCC)CCC(O)c1cc2ccc(C(F)(F)F)cc2c2cc(C(F)(F)F)ccc12 (stereo not drawn) | 3.2 |
| Cc1cccc2c(C(O)CC3CCCCN3)cc(C(F)(F)F)nc12 (stereo not drawn) | 2.93 |
| CCCCN(CCCC)CC(O)c1cc(-c2cccc(I)c2)nc2c(Cl)cc(Cl)cc12 (stereo not drawn) | 3.16 |
| COc1cc2c(C(O)CC3CCCCN3)cc(-c3ccc(Cl)cc3)cc2cc1Cl (stereo not drawn) | 3 |
| CCCCCCCN(CCCCCCC)CC(O)c1cc2c(Br)cccc2c2cc(C(F)(F)F)ccc12 (stereo not drawn) | 3.43 |
| CCCCCCCCN(CCCCCCCC)CC(O)c1ccc(Br)c2ccccc12 (stereo not drawn) | 2.24 |
| CCCCN(CCCC)CC(O)c1cc(-c2c(Cl)cccc2Cl)nc2c(Cl)cc(Cl)cc12 (stereo not drawn) | 2.41 |
| CCCCCCCN(CCCCCCC)CCC(O)c1cc2ccccc2c2ccccc12 (stereo not drawn) | 3 |
| CCCCN(CCCC)CC(O)c1cc2cc(SC)ccc2c2cc(Cl)c(Cl)cc12 (stereo not drawn) | 3.74 |
| CCCCN(CCCC)CC(O)c1cc(Cl)cc2ccc(-c3ccc(Cl)cc3)nc12 (stereo not drawn) | 2.9 |
| OC(CNC1CCCCC1)c1cc2ccc(C(F)(F)F)cc2c2cc(C(F)(F)F)ccc12 (stereo not drawn) | 3.72 |

| SMILES | log(1/C) |
| --- | --- |
| CCCCN(CCCC)CC(O)c1cc2cc(Br)ccc2c2cc(SC)ccc12 (stereo not drawn) | 3.04 |
| CCN(CC)CC(O)c1cc(-c2ccc(OC)c(OC)c2)nc2cc(Cl)ccc12 (stereo not drawn) | 2.81 |
| CCCCN(CCCC)CC(O)c1cc(/C=C/c2ccc(Cl)cc2)nc(/C=C/c2ccc(Cl)cc2)c1 (stereo not drawn) | 4.18 |
| CCCCNCC(O)c1cc2ccc(C(F)(F)F)cc2c2cc(C(F)(F)F)ccc12 (stereo not drawn) | 4.11 |
| CCCCNCC(O)c1cc(-c2ccc(Cl)cc2)nc(-c2ccc(Cl)cc2)c1 (stereo not drawn) | 3.56 |
| CCNCC(O)c1cc2ccc(C(F)(F)F)cc2c2cc(C(F)(F)F)ccc12 (stereo not drawn) | 4.39 |
| CCCNCC(O)c1cc2ccc(C(F)(F)F)cc2c2cc(C(F)(F)F)ccc12 (stereo not drawn) | 4.48 |
| OC(CC1CCCCN1)c1cc2ccc(C(F)(F)F)cc2c2cc(Cl)ccc12 (stereo not drawn) | 4.25 |
| CCCCN(CCCC)CC(O)c1cc(-c2ccc(Cl)c(Cl)c2)nc2cc(OC)ccc12 (stereo not drawn) | 3.21 |
| CCCCN(CCCC)CC(O)c1c(Cl)cc(Cl)c2nc(-c3ccc(Cl)cc3)ccc12 (stereo not drawn) | 3.6 |
| CCCCCCCN(CCCCCCC)CC(O)c1cc2ccc(Cl)cc2c2ccncc12 (stereo not drawn) | 2.31 |
| Cc1ccc(-c2cc(C(O)CC3CCCCN3)c3ccccc3n2)cc1 (stereo not drawn) | 2.38 |
| OC(CNC12CC3CC(CC(C3)C1)C2)c1cc(-c2ccc(Cl)cc2)nc(-c2ccc(Cl)cc2)c1 (stereo not drawn) | 3.23 |
| CCCCCCN(CCCCCC)CC(O)c1cc(-c2ccc(Cl)cc2)nc2cc(Cl)c(OC)cc12 (stereo not drawn) | 3.07 |
| OC(CC1CCCCN1)c1cc2cc(Br)ccc2c2cc(Br)ccc12 (stereo not drawn) | 4.13 |
| CCCN(CCC)CC(O)c1cc2ccc(Br)cc2c2cc(Br)ccc12 (stereo not drawn) | 3.95 |
| C=C[C@H]1CN2CC[C@H]1C[C@H]2[C@H](O)c1ccnc2ccc(OC)cc12.O=C(O)c1ccccc1 | 1.98 |
| CCCCCCCN(CCCCCCC)CC(O)c1cc2cc(Cl)ccc2c2cc(C(F)(F)F)ccc12 (stereo not drawn) | 3.68 |
| COc1ccc(-c2cc(C(O)CC3CCCCN3)c3cc(C)ccc3n2)cc1 (stereo not drawn) | 3 |
| OC(CC1CCCCN1)c1cc(Oc2ccc(Cl)c(Cl)c2)nc2c(Cl)cc(Cl)cc12 (stereo not drawn) | 4.1 |
| CCN(CC)CC(O)c1cc2cc(Cl)cc(Cl)c2nc1-c1ccc(Cl)cc1 (stereo not drawn) | 2.47 |
| CCCCN(CCCC)CC(O)c1cc(-c2ccc(OC)cc2)nc(-c2ccc(Cl)c(Cl)c2)c1 (stereo not drawn) | 2.68 |
| CCCCN(CCCC)CC(O)c1cc(-c2ccccc2)nc(-c2ccc(Cl)cc2)c1 (stereo not drawn) | 2.91 |
| CC1CCCNC1CC(O)c1cc(-c2ccccc2)nc2cc(Cl)ccc12 (stereo not drawn) | 3.52 |
| CN(Cc1ccccc1)CC(O)c1cc(-c2cccs2)nc2cccc(Br)c12 (stereo not drawn) | 2.26 |

| SMILES | log(1/C) |
| --- | --- |
| CCCN(CCC)CC(O)c1cc2cc(C(F)(F)F)cc(C(F)(F)F)c2c2ccccc12 (stereo not drawn) | 4.31 |
| Cc1ccc(Oc2cc(C(O)CC3CCCCN3)c3cc(C)ccc3n2)cc1 (stereo not drawn) | 2.35 |
| OC(CNC1CCCCC1)c1cc2ccc(Cl)cc2c2cc(Cl)ccc12 (stereo not drawn) | 3.36 |
| CCCCN(CCCC)CC(O)c1cc2ccc(I)cc2c2cc(C(F)(F)F)ccc12 (stereo not drawn) | 3.72 |
| CCCCN(CCCC)CC(O)c1cc(-c2ccc(Cl)cc2)nc2c(C(F)(F)F)cccc12 (stereo not drawn) | 3.69 |
| CCCCN(CCCC)CC(O)c1cc(-c2ccc(Cl)cc2)nc2cc(OC)c(Cl)cc12 (stereo not drawn) | 2.76 |
| CCCCN(CCCC)CC(O)c1cc2ccc(Br)cc2c2cc(C)sc12 (stereo not drawn) | 2.44 |
| CCN(CC)CC(O)c1cc(-c2ccc(Cl)c(Cl)c2)nc2ccc(OC)cc12 (stereo not drawn) | 3.15 |
| Cc1ccc(-c2cc(C(O)CN3CCCCC3)c3cc(C)ccc3n2)cc1 (stereo not drawn) | 2.42 |
| OC(CNC1CC1)c1cc(-c2ccc(Cl)c(Cl)c2)nc2c(Cl)cc(Cl)cc12 (stereo not drawn) | 3.6 |
| CN1CCCCC1CC(O)c1cc2ccccc2c2cc(Br)ccc12 (stereo not drawn) | 3.44 |
| CCCCCCNCC(O)c1cc(-c2ccc(C(F)(F)F)cc2)nc(-c2ccc(C(F)(F)F)cc2)c1 (stereo not drawn) | 3.96 |
| CCCCCCCN(CCCCCCC)CC(O)c1cc2c(Cl)cc(Cl)cc2c2ccsc12 (stereo not drawn) | 3 |
| CCCN(CCC)CC(O)c1cc(-c2ccc(Cl)cc2)nc(-c2ccc(Cl)cc2)c1 (stereo not drawn) | 3.3 |
| CCN(CC)C(CO)CC(O)c1cc(-c2cccs2)nc2ccc(Cl)cc12 (stereo not drawn) | 2.12 |
| OC(CC1CCCCN1)c1cc2cc(Cl)ccc2c2c(Cl)cc(Cl)cc12 (stereo not drawn) | 4.29 |
| CCCN(CCC)CC(O)c1cc2ccc(C(F)(F)F)cc2c2cc(Cl)c(Cl)cc12 (stereo not drawn) | 4.3 |
| CN1CCN(CC(O)c2cc(-c3ccc(Cl)cc3)nc3c(Cl)cc(Cl)cc23)CC1 (stereo not drawn) | 3.81 |
| CCCCCCCN(CCCCCCC)CC(O)c1cccc2c1c(Br)cc1ccccc12 (stereo not drawn) | 2.27 |
| OC(CC1CCCCN1)c1cc(-c2ccccc2)nc2ccccc12 (stereo not drawn) | 2.37 |
| CN(C)CC(O)c1cc2cc(C(F)(F)F)cc(C(F)(F)F)c2c2ccccc12 (stereo not drawn) | 3.94 |
| CCCCCN(CCCCC)CC(O)c1cc(-c2ccc(Cl)cc2)nc(-c2ccc(Cl)cc2)c1 (stereo not drawn) | 3.13 |
| CCCCN(CCCC)CC(O)c1cc(C(=O)c2cc(Cl)cc(Cl)c2)nc2c(C(F)(F)F)cc(Cl)cc12 (stereo not drawn) | 4.82 |
